biological target: T1, HDAC6 human recombinant (Homo sapiens, UniProt Q9UBN7); assay: HDAC enzyme activity inhibition (in vitro), fluorimetric HDAC6 assay; type: biochemical; conditions: samples at 0.1, 1, 10, 100 and 1000 nM, 37° C. 60 minutes, fluorescence Ex 390, Em 460
T1 sequence (Q9UBN7 1-1215): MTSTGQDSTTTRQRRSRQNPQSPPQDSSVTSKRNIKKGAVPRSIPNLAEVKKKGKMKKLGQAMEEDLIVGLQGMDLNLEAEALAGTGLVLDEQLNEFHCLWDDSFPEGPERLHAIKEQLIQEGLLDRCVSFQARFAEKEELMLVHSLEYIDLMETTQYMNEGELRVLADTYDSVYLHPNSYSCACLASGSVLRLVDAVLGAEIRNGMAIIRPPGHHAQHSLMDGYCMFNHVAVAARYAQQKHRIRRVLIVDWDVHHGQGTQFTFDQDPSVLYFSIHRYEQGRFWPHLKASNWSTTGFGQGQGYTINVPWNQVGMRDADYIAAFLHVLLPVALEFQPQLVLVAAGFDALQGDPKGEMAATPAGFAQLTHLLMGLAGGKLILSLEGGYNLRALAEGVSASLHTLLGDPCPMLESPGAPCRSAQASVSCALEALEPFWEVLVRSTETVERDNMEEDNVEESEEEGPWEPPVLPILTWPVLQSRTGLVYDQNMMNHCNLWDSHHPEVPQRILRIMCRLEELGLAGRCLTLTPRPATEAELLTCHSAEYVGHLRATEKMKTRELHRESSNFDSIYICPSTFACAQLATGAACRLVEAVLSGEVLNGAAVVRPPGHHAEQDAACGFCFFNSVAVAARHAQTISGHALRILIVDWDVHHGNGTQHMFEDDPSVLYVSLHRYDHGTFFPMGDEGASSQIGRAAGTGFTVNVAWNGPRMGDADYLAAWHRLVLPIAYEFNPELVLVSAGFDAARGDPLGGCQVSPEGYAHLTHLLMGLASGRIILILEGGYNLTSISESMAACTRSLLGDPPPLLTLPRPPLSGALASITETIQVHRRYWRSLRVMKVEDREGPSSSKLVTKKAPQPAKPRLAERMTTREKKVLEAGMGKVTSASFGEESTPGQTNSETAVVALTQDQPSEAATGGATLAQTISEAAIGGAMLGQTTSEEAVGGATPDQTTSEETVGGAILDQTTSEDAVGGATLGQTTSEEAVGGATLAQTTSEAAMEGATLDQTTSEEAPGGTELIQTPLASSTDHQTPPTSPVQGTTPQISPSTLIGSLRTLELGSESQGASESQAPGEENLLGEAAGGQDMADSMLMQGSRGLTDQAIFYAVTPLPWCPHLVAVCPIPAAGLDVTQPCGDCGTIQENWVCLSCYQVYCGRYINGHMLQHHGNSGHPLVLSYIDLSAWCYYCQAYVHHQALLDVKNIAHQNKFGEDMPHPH
Experimental: To identify this, HDAC1/6 enzyme selectivity and cell selectivity (HDAC1: histone acetylation/HDAC6: tubulin acetylation) were investigated accordingly.
An HDAC enzyme inhibitory ability of a test material was measured by means of HDAC1 Fluorimetric Drug Discovery Assay Kit (Enzolifesciences: BML-AK511) and HDAC6 human recombinant (Calbiochem: 382180). For an HDAC1 assay, samples were treated at a concentration of 100, 1000 and 10000 nM. For an HDAC6 assay, samples were treated at a concentration of 0.1, 1, 10, 100 and 1000 nM. After such sample treatment, a reaction was continued at 37° C. for 60 minutes, then treated with a developer, and then subjected to reaction at 37° C. for 30 minutes, after which fluorescence intensity (Ex 390, Em 460) was measured by means of FlexStation3 (Molecular device).

Row | Structure (SMILES) | IC50 [nM]
1 | O=C(Cn1ccc(-c2nnc(C(F)(F)F)o2)cc1=O)c1ccc(Cl)cc1 [Compound 34, 1-(2-(4-chlorophenyl)-2-oxoethyl)-4-(5-(trifluoromethyl)-1,3,4-oxadiazole-2-yl)pyridine-2(1H)-one] | 2320
2 | CS(=O)(=O)c1ccc(C(=O)Cn2ccc(-c3nnc(C(F)(F)F)o3)cc2=O)cc1 [Compound 35, 1-(2-(4-(methylsulfonyl)phenyl)-2-oxoethyl)-4-(5-(trifluoromethyl)-1,3,4-oxadiazole-2-yl)pyridine-2(1H)-one] | 2210
3 | O=C(Cn1ccc(-c2nnc(C(F)(F)F)o2)cc1=O)c1cccs1 [Compound 36, 1-(2-oxo-2-(thiophene-2-yl)ethyl)-4-(5-(trifluoromethyl)-1,3,4-oxadiazole-2-yl)pyridine-2(1H)-one] | 935
4 | O=C(Cn1ccc(-c2nnc(C(F)(F)F)o2)cc1=O)c1ccc(Cl)s1 [Compound 37, 1-(2-(5-chlorothiophene-2-yl)-2-oxoethyl)-4-(5-(trifluoromethyl)-1,3,4-oxadiazole-2-yl)pyridine-2(1H)-one] | 1300
5 | O=C(Cn1ccc(-c2nnc(C(F)(F)F)o2)cc1=O)c1coc2ccccc12 [Compound 38, 1-(2-(benzofuran-3-yl)-2-oxoethyl)-4-(5-(trifluoromethyl)-1,3,4-oxadiazole-2-yl)pyridine-2(1H)-one] | 2390
6 | O=C(Cn1ccc(-c2nnc(C(F)(F)F)o2)cc1=O)OCc1ccccc1 [Compound 40, benzyl 2-(2-oxo-4-(5-(trifluoromethyl)-1,3,4-oxadiazole-2-yl)pyridine-1(2H)-yl)acetate] | 945
7 | O=C(Cn1ccc(-c2nnc(C(F)(F)F)o2)cc1=O)c1ccc2ccccc2c1 [Compound 41, 1-(2-(naphthalene-2-yl)-2-oxoethyl)-4-(5-(trifluoromethyl)-1,3,4-oxadiazole-2-yl)pyridine-2(1H)-one] | 5180
8 | O=C(Cn1ccc(-c2nnc(C(F)(F)F)o2)cc1=O)c1ccccc1 [Compound 42, 1-(2-oxo-2-phenylethyl)-4-(5-(trifluoromethyl)-1,3,4-oxadiazole-2-yl)pyridine-2(1H)-one] | 1910
9 | CC(C)=CCn1ccc(-c2nnc(C(F)(F)F)o2)cc1=O [Compound 48, 1-(3-methylbut-2-en-1-yl)-4-(5-(trifluoromethyl)-1,3,4-oxadiazole-2-yl)pyridine-2(1H)-one] | 1670
10 | CCn1ccc(-c2nnc(C(F)(F)F)o2)cc1=O [Compound 49, 1-ethyl-4-(5-(trifluoromethyl)-1,3,4-oxadiazole-2-yl)pyridine-2(1H)-one] | 1590

Now those with a lower IC50, led by results:

Row | IC50 [nM] | Structure (SMILES)
11 | 900 | O=C(OCCn1ccc(-c2nnc(C(F)(F)F)o2)cc1=O)c1ccccc1 [Compound 39, 2-(2-oxo-4-(5-(trifluoromethyl)-1,3,4-oxadiazole-2-yl)pyridine-1(2H)-yl)ethyl benzoate]
12 | 382 | O=C(C(Cn1ccc(-c2nnc(C(F)F)o2)cc1=O)c1ccccc1)N1CCS(=O)(=O)CC1 (stereo not shown) [Compound 44]
13 | 290 | O=C(C(Cn1ccc(-c2nnc(C(F)F)o2)cc1=O)c1ccccc1)N1CCOCC1 (stereo not shown) [Compound 45, 4-(5-(difluoromethyl)-1,3,4-oxadiazole-2-yl)-1-(3-morpholino-3-oxo-2-phenylpropyl)pyridine-2(1H)-one]
14 | 238 | O=C(Cn1ccc(-c2nnc(C(F)F)o2)cc1=O)c1cccs1 [Compound 50, 4-(5-(difluoromethyl)-1,3,4-oxadiazole-2-yl)-1-(2-oxo-2-(thiophene-2-yl)ethyl)pyridine-2(1H)-one]
15 | 284 | O=C(Cn1ccc(-c2nnc(C(F)F)o2)cc1=O)c1coc2ccccc12 [Compound 51, 1-(2-(benzofuran-3-yl)-2-oxoethyl)-4-(5-(difluoromethyl)-1,3,4-oxadiazole-2-yl)pyridine-2(1H)-one]
16 | 377 | C=C(C)Cn1ccc(-c2nnc(C(F)F)o2)cc1=O [Compound 52, 4-(5-(difluoromethyl)-1,3,4-oxadiazole-2-yl)-1-(2-methylallyl)pyridine-2(1H)-one]
17 | 388 | CC(C)CCn1ccc(-c2nnc(C(F)F)o2)cc1=O [Compound 53]
18 | 663 | CC(C)=CCn1ccc(-c2nnc(C(F)F)o2)cc1=O [Compound 54, 4-(5-(difluoromethyl)-1,3,4-oxadiazole-2-yl)-1-(3-methylbut-2-en-1-yl)pyridine-2(1H)-one]
19 | 284 | CCn1ccc(-c2nnc(C(F)F)o2)cc1=O [Compound 55, 4-(5-(difluoromethyl)-1,3,4-oxadiazole-2-yl)-1-ethylpyridine-2(1H)-one]
20 | 126 | O=C(Cn1ccc(-c2nnc(C(F)F)o2)cc1=O)c1ccc(Cl)s1 [Compound 56, 1-(2-(5-chlorothiophene-2-yl)-2-oxoethyl)-4-(5-(difluoromethyl)-1,3,4-oxadiazole-2-yl)pyridine-2(1H)-one]
21 | 301 | O=C(N[C@@H](Cn1ccc(-c2nnc(C(F)F)o2)cc1=O)c1ccccc1)N1CCOCC1 [Compound 57, (R)—N-(2-(4-(5-(difluoromethyl)-1,3,4-oxadiazole-2-yl)-2-oxopyridine-1(2H)-yl)-1-phenylethyl)morpholine-4-carboxamide]
22 | 358 | O=C(N[C@@H](Cn1ccc(-c2nnc(C(F)F)o2)cc1=O)c1ccccc1)N1CCS(=O)(=O)CC1 [Compound 58, (R)—N-(2-(4-(5-(difluoromethyl)-1,3,4-oxadiazole-2-yl)-2-oxopyridine-1(2H)-yl)-1-phenylethyl)thiomorpholine-4-carboxamide 1,1-dioxide]
